Data on 15 compounds can be found in patent US8362018B2, “Substituted imidazo[1,2-a]pyrazine compounds useful for the treatment of viral infections” (Biofocus DPI, Ltd., priority 2007, dated 2013).

The test system of one data set is HCV replicon. The experiment in a line: anti-viral assay (EC50), Table 13. In kind it is cell-based. The conditions noted are these: anti-viral assays. The text has this: The ability of a compound to inhibit HCV replication can be measured in vitro or using animal models using models and assays well known to those of skill in the art (e.g. Pietschmann et al, Clin Liver Dis. 7(1)c23-43, 2003). In vitro techniques for measuring the ability of a compound to inhibit HCV replication involve using HCV or an HCV replicon. Because HCV is difficult to grow in culture, particular in vitro techniques employ an HCV replicon.
An HCV replicon is an RNA molecule able to autonomously replicate in a cultured cell, such as Huh7. The HCV replicon expresses the HCV derived components of the replication machinery and contains cis-elements required for replication in a cultured cell. […]

The test system of the next data set is Huh7. The experiment in a line: cytotoxicity measurement (CC50), Table 13. It counts as cell-based.
The nature of data set [1]: cytotoxicity measurement (CC50), Table 13. In kind it is cell-based. The conditions noted are these: human, Huh7 cells.
For another data set, the system named is HRV-2. As to the kind of experiment: antiviral activity, HRV-2 in HeLa cells (Table 15). It counts as cell-based, human rhinoviruses (HRV). The conditions noted are these: Rhinovirus A, HRV2; HRV-2 (HeLa cells).
The next data set concerns HRV-14. The experiment in a line: antiviral activity, HRV-14 in HeLa cells (Table 15). It counts as cell-based, human rhinovirus 14 (HRV-14). The conditions noted are these: Rhinovirus B, HRV14; HRV-14 (HeLa cells).
The subject of a further data set is HRV clinical isolate. The experiment in a line: antiviral activity, HRV clinical isolate in HeLa cells (Table 15). It counts as cell-based, human rhinoviruses (HRV). The conditions noted are these: Enterovirus.
Data set [2] in a line: cytotoxicity CC50 in HeLa cells (Table 15). It counts as cell-based. The conditions noted are these: human, HRV-2 column.
In the next data set the test system is HeLa cells. The experiment in a line: cytotoxicity CC50 in HeLa cells (Table 15). It counts as cell-based.

Molecules are shown by their SMILES.

In general, EC50 refers to the concentration that produces a half-maximal response. Low values mean higher potency in that assay, high ones lower potency in that assay. In general, CC50 refers to the concentration giving 50% cytotoxicity. Read a low CC50 as harm at low concentration. For the compound `NS(=O)(=O)c1cccc(CNc2nccn3c(-c4ccc(O)cc4)cnc23)c1` [Compound 95, 3-{[3-(4-Hydroxy-phenyl)-imidazol[1,2-a]pyrazin-8-ylamino]-methyl}-benzenesulfonamide], the EC50 in the data set on HCV replicon was in the range of 1 to 20 µM. Further, in the data set with Huh7, the CC50 is less than 35 µM.
Take `Cc1nc2c(NCc3ccc(S(N)(=O)=O)cc3)nccn2c1-c1ccc(O)c(F)c1` [Compound 106]: the EC50 with HCV replicon (Hepatitis C virus) was less than 1 µM; in the data set with HRV-2 it was less than 1 µg/mL; with HRV-14, less than 1 µg/mL; in the data set with HRV clinical isolate, less than 1 µg/mL. For the same compound, the CC50 in data set [1] is greater than 35 µM; in data set [2], greater than 35 µg/mL. Further, the “CC50(μg/mL)” value in the data set with HeLa cells (HRV clinical isolate column) and in the data set with HeLa cells (HRV-14 column) was “* (>35 μg/mL)” each time.
`Oc1cccc(-c2cnc3c(NCCc4cccnc4)nccn23)c1` [Compound 85]: the EC50 in the data set with HCV replicon (Hepatitis C virus) lay within 1 to 20 µM. This compound registered a CC50 in data set [1] of less than 35 µM.
In turn, `Cc1nc2c(NCc3ccc(S(N)(=O)=O)cc3)nccn2c1-c1ccc(O)c([N+](=O)[O-])c1` [Compound 107] registered an EC50 in the data set on HCV replicon (Hepatitis C virus) of 1 to 20 µM. This compound came in with a CC50 in data set [1] greater than 35 µM.
For the compound `CNS(=O)(=O)c1ccc(CNc2nccn3c(-c4ccc(O)cc4)cnc23)cc1` [Compound 103], in the data set on HCV replicon (Hepatitis C virus), the EC50 was 1 to 20 µM. In data set [1], the CC50 was greater than 35 µM.
In the data set with HCV replicon (Hepatitis C virus), `COc1ccc(CNc2nccn3c(-c4ccc(O)cc4)cnc23)cc1` [Compound 40] gave an EC50 of 1 to 20 µM. The compound further yielded a CC50 in data set [1] greater than 35 µM.
Turning to `Oc1ccc(Nc2nccn3c(-c4cccc(F)c4)cnc23)cc1` [Compound 82], the EC50 with HCV replicon (Hepatitis C virus) was in the range of 1 to 20 µM. Further, the CC50 in data set [1] was less than 35 µM.
On the same counts, the results for `CC(C)(C)c1ccc(CNc2nccn3c(-c4ccc(O)cc4)cnc23)cc1` [Compound 98] are 1 to 20 µM and less than 35 µM.
`COc1cc(-c2cnc3c(NCc4ccc(S(N)(=O)=O)cc4)ncc(C)n23)ccc1O` [Compound 109] showed an EC50 with HCV replicon (Hepatitis C virus) of less than 1 µM. In data set [1], this compound registered a CC50 of less than 35 µM.
On the same counts, the results for `COc1ccc(-c2cnc3c(NCCc4ccc(S(N)(=O)=O)cc4)nccn23)cc1OC` [Compound 17] are 1 to 20 µM and less than 35 µM.
Compound `OCc1ccc(-c2cnc3c(NCCc4ccncc4)nccn23)cc1` [Compound 3] had an EC50 in the data set with HCV replicon (Hepatitis C virus) greater than 20 µM. In data set [1], this compound gave a CC50 greater than 35 µM.
On to `CC(=O)Nc1ccc(-c2cnc3c(NCc4ccc(S(N)(=O)=O)cc4)nccn23)cc1` [Compound 27], for which, in the data set with HCV replicon (Hepatitis C virus), the EC50 fell in the range of 1 to 20 µM. The same compound yielded a CC50 in data set [1] greater than 35 µM.
Regarding `Cc1cccc(CNc2nccn3c(-c4ccc(O)cc4)cnc23)c1` [Compound 35], the EC50 with HCV replicon (Hepatitis C virus) is 1 to 20 µM. In data set [1], the CC50 was less than 35 µM.
`COc1ccc(-c2cnc3c(Nc4ccc(N5CCOCC5)cc4)nccn23)cc1OC` [Compound 64] displayed an EC50 in the data set with HCV replicon (Hepatitis C virus) of 1 to 20 µM. This compound also registered a CC50 in data set [1] of less than 35 µM.
`CC(=O)Nc1cccc(-c2cnc3c(NCc4ccc(S(N)(=O)=O)cc4)nccn23)c1` [Compound 87]: the EC50 with HCV replicon (Hepatitis C virus) was 1 to 20 µM. The compound further displayed a CC50 in data set [1] of less than 35 µM.
